Laboratory results from ChEMBL document CHEMBL4699583 (J Med Chem, 2020).
The source made the active and inactive calls.

What was measured:
[1] = biological target: 5-hydroxytryptamine receptor 2B (Homo sapiens) (UniProt P41595); experiment: Antagonist activity at human 5HT2B receptor at 2 uM by cell based calcium flux assay; assay type: functional
[2] = biological target: Androgen receptor (Homo sapiens) (UniProt P10275); experiment: Antagonist activity at human androgen receptor at 2 uM by cell based nuclear translocation assay
Sequence of Androgen receptor (Homo sapiens) (P10275 whole entry): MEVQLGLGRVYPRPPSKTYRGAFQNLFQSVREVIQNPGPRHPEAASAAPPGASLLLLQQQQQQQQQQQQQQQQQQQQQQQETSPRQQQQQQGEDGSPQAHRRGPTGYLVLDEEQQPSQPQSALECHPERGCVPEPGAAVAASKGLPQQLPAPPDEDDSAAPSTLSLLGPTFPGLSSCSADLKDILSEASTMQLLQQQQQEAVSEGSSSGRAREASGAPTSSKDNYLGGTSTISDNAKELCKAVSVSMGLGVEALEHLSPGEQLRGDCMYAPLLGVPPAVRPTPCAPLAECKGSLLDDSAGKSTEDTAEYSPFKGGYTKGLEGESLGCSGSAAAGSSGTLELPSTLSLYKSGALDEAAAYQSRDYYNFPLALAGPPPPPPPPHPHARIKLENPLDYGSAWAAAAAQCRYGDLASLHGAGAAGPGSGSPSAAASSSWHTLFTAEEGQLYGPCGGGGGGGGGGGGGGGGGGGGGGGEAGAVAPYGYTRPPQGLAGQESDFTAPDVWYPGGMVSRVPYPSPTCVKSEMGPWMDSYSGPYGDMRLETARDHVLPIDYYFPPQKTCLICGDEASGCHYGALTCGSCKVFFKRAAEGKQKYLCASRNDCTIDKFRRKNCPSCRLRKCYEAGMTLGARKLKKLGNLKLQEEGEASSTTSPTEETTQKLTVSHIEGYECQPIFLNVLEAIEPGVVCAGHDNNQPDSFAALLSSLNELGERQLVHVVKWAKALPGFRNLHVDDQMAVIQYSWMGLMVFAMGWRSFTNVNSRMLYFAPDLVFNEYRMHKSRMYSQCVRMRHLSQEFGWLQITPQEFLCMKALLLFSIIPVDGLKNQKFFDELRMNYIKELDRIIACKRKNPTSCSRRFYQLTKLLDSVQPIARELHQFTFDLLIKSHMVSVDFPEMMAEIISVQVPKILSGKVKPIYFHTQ

[3] = biological target: Kappa-type opioid receptor (Homo sapiens) (UniProt P41145); experiment: Agonist activity at human kappa opioid receptor at 2 uM by cell based cAMP assay; assay type: functional
[4] = biological target: Alpha-2A adrenergic receptor (Homo sapiens) (UniProt P08913); experiment: Agonist activity at human alpha-2A adrenergic receptor at 2 uM by cell based cAMP assay; assay type: functional
[5] = biological target: Muscarinic acetylcholine receptor M3 (Homo sapiens) (UniProt P20309); experiment: Agonist activity at human muscarinic acetylcholine receptor M3 at 2 uM by cell based calcium flux assay; assay type: functional
Sequence of Muscarinic acetylcholine receptor M3 (Homo sapiens) (P20309 whole entry, looked up): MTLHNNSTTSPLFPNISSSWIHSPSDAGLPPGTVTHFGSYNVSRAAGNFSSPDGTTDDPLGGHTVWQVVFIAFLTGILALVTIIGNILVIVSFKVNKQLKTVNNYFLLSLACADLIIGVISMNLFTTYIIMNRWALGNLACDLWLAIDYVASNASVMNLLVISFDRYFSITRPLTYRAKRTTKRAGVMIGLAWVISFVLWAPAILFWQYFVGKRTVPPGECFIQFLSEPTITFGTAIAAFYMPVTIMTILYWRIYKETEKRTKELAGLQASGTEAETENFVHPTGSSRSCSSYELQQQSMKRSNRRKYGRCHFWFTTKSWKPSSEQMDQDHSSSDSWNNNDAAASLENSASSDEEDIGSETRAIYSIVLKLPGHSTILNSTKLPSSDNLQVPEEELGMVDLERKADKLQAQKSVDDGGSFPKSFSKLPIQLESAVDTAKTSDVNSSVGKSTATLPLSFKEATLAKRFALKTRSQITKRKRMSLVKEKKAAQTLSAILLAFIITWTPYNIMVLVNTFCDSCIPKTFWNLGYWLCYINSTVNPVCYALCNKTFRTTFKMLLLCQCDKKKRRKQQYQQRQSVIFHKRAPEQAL

[6] = biological target: Histamine H1 receptor (Homo sapiens) (UniProt P35367); experiment: Agonist activity at human histamine H1 receptor at 2 uM by cell based calcium flux assay; assay type: functional
Sequence of Histamine H1 receptor (Homo sapiens) (P35367 whole entry): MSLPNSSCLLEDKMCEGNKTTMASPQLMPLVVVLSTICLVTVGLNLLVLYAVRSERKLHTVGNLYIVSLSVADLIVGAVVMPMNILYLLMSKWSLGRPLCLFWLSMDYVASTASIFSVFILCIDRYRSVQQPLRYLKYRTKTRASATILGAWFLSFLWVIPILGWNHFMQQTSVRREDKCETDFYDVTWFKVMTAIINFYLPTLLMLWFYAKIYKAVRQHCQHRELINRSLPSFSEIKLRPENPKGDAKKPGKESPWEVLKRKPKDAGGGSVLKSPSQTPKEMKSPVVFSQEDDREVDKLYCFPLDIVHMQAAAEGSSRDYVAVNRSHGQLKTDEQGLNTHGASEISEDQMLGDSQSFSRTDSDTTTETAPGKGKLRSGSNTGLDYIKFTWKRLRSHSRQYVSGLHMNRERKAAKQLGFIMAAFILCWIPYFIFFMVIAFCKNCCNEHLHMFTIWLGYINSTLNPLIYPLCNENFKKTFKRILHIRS

[7] = biological target: Histamine H1 receptor (Homo sapiens) (UniProt P35367); experiment: Antagonist activity at human histamine H1 receptor at 2 uM by cell based calcium flux assay; assay type: functional
[8] = biological target: Prostaglandin G/H synthase 2 (Homo sapiens) (UniProt P35354); experiment: Inhibition of human COX2 at 2 uM
Sequence of Prostaglandin G/H synthase 2 (Homo sapiens) (P35354 whole entry): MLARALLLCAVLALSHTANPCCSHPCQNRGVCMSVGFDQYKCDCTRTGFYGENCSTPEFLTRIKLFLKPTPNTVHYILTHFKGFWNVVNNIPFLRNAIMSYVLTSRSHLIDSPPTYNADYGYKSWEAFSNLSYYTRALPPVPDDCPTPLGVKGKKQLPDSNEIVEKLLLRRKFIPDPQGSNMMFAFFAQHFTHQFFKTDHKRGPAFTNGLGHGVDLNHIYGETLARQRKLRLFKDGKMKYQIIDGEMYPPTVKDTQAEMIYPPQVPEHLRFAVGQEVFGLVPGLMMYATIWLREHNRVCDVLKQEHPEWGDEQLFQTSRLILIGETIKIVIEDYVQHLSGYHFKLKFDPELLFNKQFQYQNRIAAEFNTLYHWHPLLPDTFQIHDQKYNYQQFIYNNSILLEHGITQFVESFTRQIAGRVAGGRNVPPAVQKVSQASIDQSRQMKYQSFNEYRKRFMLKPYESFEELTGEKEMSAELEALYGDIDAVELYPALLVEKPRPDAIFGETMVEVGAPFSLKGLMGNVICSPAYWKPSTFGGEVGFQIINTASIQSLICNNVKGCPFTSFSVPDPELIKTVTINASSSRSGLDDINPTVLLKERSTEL

[9] = Clearance in C57B6/J mouse at 10 mg/kg, ip administered as single dose by UPLC/MS TQD analysis; assay type: ADME, organism-based; conditions: in vivo
[10] = biological target: Voltage-dependent L-type calcium channel subunit alpha-1C (Homo sapiens, UniProt Q13936); experiment: Inhibition of human L-type calcium channel Cav1.2 at 2 uM by cell based assay
[11] = biological target: D(1A) dopamine receptor (Homo sapiens) (UniProt P21728); experiment: Antagonist activity at human dopamine D1 receptor at 2 uM by cell based cAMP assay; assay type: functional
Sequence of D(1A) dopamine receptor (Homo sapiens) (P21728 whole entry): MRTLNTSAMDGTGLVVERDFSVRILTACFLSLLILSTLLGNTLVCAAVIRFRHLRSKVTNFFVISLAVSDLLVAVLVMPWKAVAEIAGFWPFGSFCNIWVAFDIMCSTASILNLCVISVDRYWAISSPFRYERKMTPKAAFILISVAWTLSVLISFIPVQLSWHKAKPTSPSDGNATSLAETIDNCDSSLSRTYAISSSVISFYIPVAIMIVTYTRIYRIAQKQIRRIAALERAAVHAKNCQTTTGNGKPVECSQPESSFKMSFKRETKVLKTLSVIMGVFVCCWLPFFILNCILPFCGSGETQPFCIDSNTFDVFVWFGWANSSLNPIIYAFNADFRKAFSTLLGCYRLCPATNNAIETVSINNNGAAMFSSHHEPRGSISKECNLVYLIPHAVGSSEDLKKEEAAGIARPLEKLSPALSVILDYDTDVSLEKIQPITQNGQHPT

[12] = biological target: Sodium-dependent serotonin transporter (Homo sapiens) (UniProt P31645); experiment: Inhibition of human serotonin transporter at 2 uM by cell based assay
[13] = biological target: T1, GABA-A receptor; alpha-1/beta-2/gamma-2 (Homo sapiens) (UniProt P14867+P47870+P18507); experiment: Inactivation of human GABA alpha1beta2gamma2 receptor at 2 uM by cell based assay
[14] = biological target: T1, GABA-A receptor; alpha-1/beta-2/gamma-2 (Homo sapiens); experiment: Activation of human GABA alpha1beta2gamma2 receptor at 2 uM by cell based assay
Homo sapiens [15] = organism: Homo sapiens; experiment: Activation of human 5HT3A channel at 2 uM by cell based calcium flux assay
[16] = biological target: Vasopressin V1a receptor (Homo sapiens) (UniProt P37288); experiment: Antagonist activity at human vasopressin V1a receptor at 2 uM by cell based calcium flux assay; assay type: functional
[17] = biological target: 5-hydroxytryptamine receptor 1A (Homo sapiens) (UniProt P08908); experiment: Agonist activity at human 5HT1A receptor at 2 uM by cell based cAMP assay; assay type: functional
Sequence of 5-hydroxytryptamine receptor 1A (Homo sapiens) (P08908 whole entry): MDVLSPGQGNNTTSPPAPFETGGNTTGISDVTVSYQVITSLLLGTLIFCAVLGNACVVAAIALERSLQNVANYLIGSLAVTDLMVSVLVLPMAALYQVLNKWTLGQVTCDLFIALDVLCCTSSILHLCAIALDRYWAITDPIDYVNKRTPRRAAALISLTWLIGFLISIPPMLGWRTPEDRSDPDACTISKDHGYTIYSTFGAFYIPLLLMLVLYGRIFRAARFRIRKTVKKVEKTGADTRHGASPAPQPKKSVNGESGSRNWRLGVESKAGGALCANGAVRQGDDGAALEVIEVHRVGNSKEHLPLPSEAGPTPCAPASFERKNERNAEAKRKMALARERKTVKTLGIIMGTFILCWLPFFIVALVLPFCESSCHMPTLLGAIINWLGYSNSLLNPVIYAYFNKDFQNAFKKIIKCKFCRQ

[18] = biological target: Adenosine receptor A2a (Homo sapiens) (UniProt P29274); experiment: Antagonist activity at human adenosine A2A at 2 uM by cell based calcium flux assay; assay type: functional
Sequence of Adenosine receptor A2a (Homo sapiens) (P29274 whole entry): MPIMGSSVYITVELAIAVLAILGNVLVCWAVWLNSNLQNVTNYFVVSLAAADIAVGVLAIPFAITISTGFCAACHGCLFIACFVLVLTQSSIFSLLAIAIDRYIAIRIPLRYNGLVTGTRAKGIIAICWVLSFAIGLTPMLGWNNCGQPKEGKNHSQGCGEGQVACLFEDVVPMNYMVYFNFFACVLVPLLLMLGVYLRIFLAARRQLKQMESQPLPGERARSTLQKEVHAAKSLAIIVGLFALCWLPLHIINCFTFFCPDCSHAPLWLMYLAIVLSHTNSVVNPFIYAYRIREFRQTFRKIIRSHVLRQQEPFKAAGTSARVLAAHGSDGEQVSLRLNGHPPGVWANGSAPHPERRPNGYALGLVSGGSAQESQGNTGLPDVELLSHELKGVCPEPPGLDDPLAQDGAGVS

[19] = biological target: Muscarinic acetylcholine receptor M3 (Homo sapiens) (UniProt P20309); experiment: Antagonist activity at human muscarinic acetylcholine receptor M3 at 2 uM by cell based calcium flux assay; assay type: functional
[20] = biological target: Cholecystokinin receptor type A (Homo sapiens) (UniProt P32238); experiment: Agonist activity at human cholecystokinin typeA receptor at 2 uM by cell based calcium flux assay; assay type: functional
[21] = biological target: 3',5'-cyclic-AMP phosphodiesterase 4D (Homo sapiens) (UniProt Q08499); experiment: Inhibition of human PDE4D2 at 2 uM
[22] = biological target: Muscarinic acetylcholine receptor M2 (Homo sapiens) (UniProt P08172); experiment: Antagonist activity at human muscarinic acetylcholine receptor M2 at 2 uM by cell based cAMP assay; assay type: functional
Sequence of Muscarinic acetylcholine receptor M2 (Homo sapiens) (P08172 whole entry): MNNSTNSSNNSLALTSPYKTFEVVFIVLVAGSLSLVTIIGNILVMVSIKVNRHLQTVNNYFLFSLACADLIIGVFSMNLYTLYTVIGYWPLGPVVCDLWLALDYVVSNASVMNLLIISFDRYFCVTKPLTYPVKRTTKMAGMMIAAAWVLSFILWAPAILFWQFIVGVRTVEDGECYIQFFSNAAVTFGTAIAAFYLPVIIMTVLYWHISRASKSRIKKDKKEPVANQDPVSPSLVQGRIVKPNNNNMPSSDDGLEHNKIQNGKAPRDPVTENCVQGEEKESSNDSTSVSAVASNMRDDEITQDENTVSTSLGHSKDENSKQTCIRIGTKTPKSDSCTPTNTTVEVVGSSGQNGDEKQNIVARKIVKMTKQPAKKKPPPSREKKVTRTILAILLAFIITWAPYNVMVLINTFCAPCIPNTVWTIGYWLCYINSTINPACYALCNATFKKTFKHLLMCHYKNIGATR

[23] = biological target: Androgen receptor (Homo sapiens) (UniProt P10275); experiment: Agonist activity at human androgen receptor at 2 uM by cell based nuclear translocation assay
[24] = biological target: Adenosine receptor A2a (Homo sapiens) (UniProt P29274); experiment: Agonist activity at human adenosine A2A receptor at 2 uM by cell based calcium flux assay; assay type: functional
[25] = biological target: Muscarinic acetylcholine receptor M1 (Homo sapiens) (UniProt P11229); experiment: Antagonist activity at human muscarinic acetylcholine receptor M1 at 2 uM by cell based calcium flux assay; assay type: functional
[26] = biological target: Voltage-gated potassium channel, IKs; KCNQ1(Kv7.1)/KCNE1(MinK) (Homo sapiens, UniProt P51787+P15382); experiment: Activation of human KvLQT1/mink at 2 uM by thallium flux assay; assay type: protein-complex assay
[27] = biological target: Cannabinoid receptor 1 (Homo sapiens) (UniProt P21554); experiment: Agonist activity at human cannabinoid receptor 1 at 2 uM by cell based cAMP assay; assay type: functional
[28] = biological target: Mu-type opioid receptor (Homo sapiens) (UniProt P35372); experiment: Antagonist activity at human mu opioid receptor at 2 uM by cell based cAMP assay; assay type: functional
[29] = biological target: Alpha-1A adrenergic receptor (Homo sapiens) (UniProt P35348); experiment: Antagonist activity at human ADRA1A at 2 uM by cell based calcium flux assay; assay type: functional
Sequence of Alpha-1A adrenergic receptor (Homo sapiens) (P35348 whole entry): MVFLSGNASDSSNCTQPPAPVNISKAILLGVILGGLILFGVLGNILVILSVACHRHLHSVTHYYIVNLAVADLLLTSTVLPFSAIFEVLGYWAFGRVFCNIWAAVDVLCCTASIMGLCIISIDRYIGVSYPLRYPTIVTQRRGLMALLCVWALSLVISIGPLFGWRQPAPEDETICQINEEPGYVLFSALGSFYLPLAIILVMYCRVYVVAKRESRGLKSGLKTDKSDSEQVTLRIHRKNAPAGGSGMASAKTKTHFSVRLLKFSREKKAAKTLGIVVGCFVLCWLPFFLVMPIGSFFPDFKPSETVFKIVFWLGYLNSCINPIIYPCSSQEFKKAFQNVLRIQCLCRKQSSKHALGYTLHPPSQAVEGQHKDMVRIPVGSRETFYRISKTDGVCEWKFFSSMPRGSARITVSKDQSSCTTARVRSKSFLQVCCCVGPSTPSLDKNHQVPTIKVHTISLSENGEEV

[30] = biological target: Voltage-gated inwardly rectifying potassium channel KCNH2 (Homo sapiens, UniProt Q12809); experiment: Inhibition of human ERG at 2 uM by thallium flux assay
[31] = biological target: Beta-2 adrenergic receptor (Homo sapiens) (UniProt P07550); experiment: Agonist activity at human beta-2 adrenergic receptor at 2 uM by cell based cAMP assay; assay type: functional
[32] = biological target: Acetylcholinesterase (Homo sapiens) (UniProt P22303); experiment: Inhibition of human AChE at 2 uM
[33] = biological target: Alpha-1A adrenergic receptor (Homo sapiens) (UniProt P35348); experiment: Agonist activity at human ADRA1A at 2 uM by cell based calcium flux assay; assay type: functional
[34] = biological target: DNA topoisomerase 2-alpha (Homo sapiens, UniProt P11388); experiment: Poison activity at human topoisomerase 2alpha in human Hela cells assessed as H2AX phosphorylation at 10 uM incubated for 90 mins by Western blot analysis; assay type: cell-based
[35] = biological target: 5-hydroxytryptamine receptor 2A (Homo sapiens) (UniProt P28223); experiment: Agonist activity at human 5HT2A receptor at 2 uM by cell based calcium flux assay; assay type: functional
[36] = Drug uptake in C57B6/J mouse brain at 10 mg/kg, ip administered as single dose measured after 60 to 360 mins by UPLC/MS TQD analysis; assay type: ADME, organism-based; conditions: in vivo, time 60-360 min
[37] = biological target: 5-hydroxytryptamine receptor 1B (Homo sapiens) (UniProt P28222); experiment: Antagonist activity at human 5HT1B receptor at 2 uM by cell based cAMP assay; assay type: functional
[38] = biological target: 5-hydroxytryptamine receptor 1A (Homo sapiens) (UniProt P08908); experiment: Antagonist activity at human 5HT1A receptor at 2 uM by cell based cAMP assay; assay type: functional
[39] = biological target: Vascular endothelial growth factor receptor 2 (Homo sapiens) (UniProt P35968); experiment: Inhibition of human VEGFR2 at 2 uM
[40] = biological target: T2, Neuronal acetylcholine receptor; alpha4/beta2 (Homo sapiens) (UniProt P17787+P43681); experiment: Activation of human alpha4beta2 nACHR at 2 uM by cell based calcium flux assay
[41] = biological target: Amine oxidase [flavin-containing] A (Homo sapiens, UniProt P21397); experiment: Inhibition of human MAOA at 2 uM
[42] = biological target: T2, Neuronal acetylcholine receptor; alpha4/beta2 (Homo sapiens); experiment: Inhibition of human alpha4beta2 nACHR at 2 uM by cell based calcium flux assay
Homo sapiens [43] = organism: Homo sapiens; experiment: Inhibition of human 5HT3A channel at 2 uM by cell based calcium flux assay

CN(C)c1ccc(Nc2nc(-c3ccncc3)nc3c2CC(N)CC3)cc1 (stereo not drawn)
Active: Drug uptake [36]
Not Active: inhibition (INH) [10] | Activity [26] | inhibition (INH) [30] | Activity [34] | inhibition (INH) [41]
inactive: Activity [1] | Activity [2] | Activity [3] | Activity [4] | Activity [5] | Activity [6] | Activity [7] | inhibition [8] | Activity [11] | inhibition [12] | Activity [13] | Activity [14] | Activity (Homo sapiens [15]) | Activity [16] | Activity [17] | Activity [18] | Activity [19] | Activity [20] | inhibition [21] | Activity [22] | Activity [23] | Activity [24] | Activity [25] | Activity [27] | Activity [28] | Activity [29] | Activity [31] | inhibition [32] | Activity [33] | Activity [35] | Activity [37] | Activity [38] | inhibition [39] | Activity [40] | inhibition [42] | inhibition (Homo sapiens [43])
116 mL/min: CL/F [9]
